Test results: ChEMBL document CHEMBL5614412, “Regulation of protein phosphorylation by PTPN2 and its small-molecule inhibitors/degraders as a potential disease treatment strategy” (Eur J Med Chem, 2024)
Starred links: 1 amine or outer side, 2 acyl side, 3 side chain; linkers in the order of their positions; H or OH if unused. Non-standard residues stand in square brackets, D forms with d. Residues, ends and D or L forms follow the SMILES beside them. ξ: configuration not given here. *: point of attachment. NHCH2(1,3-C6H4)CH2CO = O=C(Cc1cccc(CN[*:1])c1)[*:2]; ξF2Pmp = NC(Cc1ccc(C(F)(F)P(=O)(O)O)cc1)C(=O)O; Benzoyl(3-Br,4-Me) = Cc1ccc(C(=O)*)cc1Br; ξPro(4R-OH) = O=C(O)C1C[C@@H](O)CN1; X2 = Cc1ncsc1-c1ccc([C@H](C)N*)cc1; Tle = CC(C)(C)[C@H](N)C(=O)O; X1 = COc1ccc(CC(=O)*)cc1O

Tests used:
[1] = molecular target: Protein cereblon/Tyrosine-protein phosphatase non-receptor type 1 (Homo sapiens, UniProt P18031+Q96SW2); experiment: PROTAC activity at PTP1B/CRBN in HEK293 cells assessed as protein degradation measured for 48 hrs by Western blot analysis; type: cell-based
[2] = molecular target: Protein cereblon/Tyrosine-protein phosphatase non-receptor type 2 (Homo sapiens, UniProt P17706+Q96SW2); experiment: PROTAC activity at PTPN2/CRBN in HEK293 cells assessed as protein degradation measured for 48 hrs by Western blot analysis; type: cell-based
Homo sapiens = organism: Homo sapiens; experiment: Selectivity index, ratio of DC50 for PROTAC activity at PTP1B/CRBN in HEK293 cells to DC50 for PROTAC activity at PTPN2/CRBN in HEK293 cells; type: cell-based
B16 = experiment: Antiproliferative activity against mouse B16 cells; type: functional, cell-based
[3] = molecular target: T1, Tyrosine-protein phosphatase non-receptor type 1 (Homo sapiens, UniProt P18031); experiment: Inhibition of PTP1B (unknown origin)
T1 sequence (P18031 whole entry): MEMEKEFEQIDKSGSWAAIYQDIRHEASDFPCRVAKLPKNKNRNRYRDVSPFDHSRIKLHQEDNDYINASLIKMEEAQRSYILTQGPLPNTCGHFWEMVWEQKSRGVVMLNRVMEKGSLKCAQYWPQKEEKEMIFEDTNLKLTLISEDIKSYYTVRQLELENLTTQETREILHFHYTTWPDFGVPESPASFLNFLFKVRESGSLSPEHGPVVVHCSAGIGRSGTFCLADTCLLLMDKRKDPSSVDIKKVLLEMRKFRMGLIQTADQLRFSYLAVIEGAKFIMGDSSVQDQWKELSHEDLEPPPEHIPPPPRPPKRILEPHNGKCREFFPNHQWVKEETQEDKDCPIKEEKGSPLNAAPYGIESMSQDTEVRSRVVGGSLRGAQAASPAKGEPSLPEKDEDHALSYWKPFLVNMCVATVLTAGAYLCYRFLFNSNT

[4] = molecular target: T2, Tyrosine-protein phosphatase non-receptor type 2 (Homo sapiens, UniProt P17706); experiment: Inhibition of PTPN2 (unknown origin)
T2 sequence (P17706 whole entry): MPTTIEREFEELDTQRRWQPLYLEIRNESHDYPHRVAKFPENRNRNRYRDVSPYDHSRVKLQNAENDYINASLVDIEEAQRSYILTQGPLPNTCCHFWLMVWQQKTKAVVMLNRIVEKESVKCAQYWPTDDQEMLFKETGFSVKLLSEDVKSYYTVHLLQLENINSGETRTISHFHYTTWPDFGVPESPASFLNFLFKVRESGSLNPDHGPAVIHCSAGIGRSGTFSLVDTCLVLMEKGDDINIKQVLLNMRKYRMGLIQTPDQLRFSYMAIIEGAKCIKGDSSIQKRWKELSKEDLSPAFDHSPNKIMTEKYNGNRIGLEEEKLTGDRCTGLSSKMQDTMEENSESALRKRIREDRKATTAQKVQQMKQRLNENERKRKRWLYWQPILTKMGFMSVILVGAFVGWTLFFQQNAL

[5] = Inhibition of PTP1B/PTPN2 (unknown origin) in mouse B16 cells; type: cell-based, Homo sapiens
[6] = molecular target: T2, Tyrosine-protein phosphatase non-receptor type 2
Description: Inhibition of human PTPN2 extracted from Escherichia coli BL21 (DE3) by fluorescence based analysis

[7] = molecular target: T2, Tyrosine-protein phosphatase non-receptor type 2; remark: listed apart in the source
Description: Inhibition of full-length human recombinant PTPN2 incubated for 20 mins by mobile shift assay

Chain of Protein cereblon/Tyrosine-protein phosphatase non-receptor type 2 (Q96SW2 whole entry, one chain of several): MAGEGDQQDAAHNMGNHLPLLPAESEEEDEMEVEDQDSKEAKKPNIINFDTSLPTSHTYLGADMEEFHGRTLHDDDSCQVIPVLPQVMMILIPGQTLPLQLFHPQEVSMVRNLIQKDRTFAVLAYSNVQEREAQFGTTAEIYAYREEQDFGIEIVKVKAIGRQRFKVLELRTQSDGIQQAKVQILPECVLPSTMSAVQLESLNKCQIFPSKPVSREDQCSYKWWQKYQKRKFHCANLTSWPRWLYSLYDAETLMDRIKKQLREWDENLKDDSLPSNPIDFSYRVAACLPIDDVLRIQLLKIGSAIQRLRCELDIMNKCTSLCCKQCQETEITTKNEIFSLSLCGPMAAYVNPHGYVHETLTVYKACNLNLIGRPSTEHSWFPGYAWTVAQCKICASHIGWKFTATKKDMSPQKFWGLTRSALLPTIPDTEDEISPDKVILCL
Chain of Protein cereblon/Tyrosine-protein phosphatase non-receptor type 1 (Q96SW2 whole entry, one chain of several): as above

In the case of `Cc1ncsc1-c1ccc(C(C)CC(=O)[C@H]2C[C@H](O)CN2C(=O)[C@@H](NC(=O)CCCCCNC(=O)n2cc(-c3ccc4cc(O)c(N5CC(=O)NS5(=O)=O)c(F)c4c3)cn2)C(C)(C)C)cc1` (some centres undefined), the DC50 [1] is reported as 13100 nM, the DC50 [2] is reported as 217 nM and the Selectivity Index (Homo sapiens) is reported as greater than 60.

For `CC1(C)C[C@H](Nc2cccc(-c3sc(C(=O)O)c(OCC(=O)O)c3Cl)c2)CCN1S(=O)(=O)Cc1cccc(NC(=O)N2CCC(c3ccc4c5c(cccc35)C(=O)N4[C@@H]3CCC(=O)NC3=O)CC2)c1`, the DC50 [2] was less than 100 nM.

`CC(C)CCN[C@@H]1C[C@H]2C[C@@H]1c1c2cc(O)c(N2CC(=O)NS2(=O)=O)c1F` gave an IC50 (B16) of 7820 nM.

`Cn1c(=O)n(C2CCC(=O)NC2=O)c2ccc(-c3ccc(CC(=O)Nc4ccc5c(F)c(N6CC(=O)NS6(=O)=O)c(O)cc5c4)cc3)cc21` (centres undefined) showed a DC50 [2] of 10 nM.

With `CC[C@@H]1CCN(CCc2cc(O)c(N3CC(=O)NS3(=O)=O)c(F)c2)C1` the IC50 (B16) was 130 nM.

For `CC1(C)CCC[C@H](NCc2cc(O)c(N3CC(=O)NS3(=O)=O)c(F)c2)C1`, the IC50 (B16) was 770 nM.

`CC(C)CCNC1CNc2cc(O)c(N3CC(=O)NS3(=O)=O)c(F)c2C1` (centres undefined) showed an IC50 (B16) of 1400 nM.

For `COc1cc(CC(=O)NC(Cc2ccccc2)C(=O)NC(Cc2ccc(C(F)(F)P(=O)(O)O)cc2)C(=O)N[C@@H](CCCCNC(=O)c2ccc(C)c(Br)c2)C(N)=O)ccc1O` (some centres undefined), the IC50 [3] was 120 nM.

`COc1ccc(CC(=O)N[C@@H](Cc2ccccc2)C(=O)NC(Cc2ccc(C(F)(F)P(=O)(O)O)cc2)C(=O)N[C@@H](CCCCNC(=O)c2ccc(C)c(Br)c2)C(=O)NCc2cccc(CC(=O)N[C@H](C(=O)N3C[C@H](O)CC3C(=O)N[C@@H](C)c3ccc(-c4scnc4C)cc3)C(C)(C)C)c2)cc1O` (stereo partly drawn) (X1-F[ξF2Pmp]K(Benzoyl(3-Br,4-Me))[NHCH2(1,3-C6H4)CH2CO][Tle][ξPro(4R-OH)]-X2) gave a DC50 [1] of 14.8 nM, a DC50 [2] of 7 nM and a Selectivity Index (Homo sapiens) of 2.1.

In the case of `O=C1CN(c2c(O)cc(NC(=O)NC3CCCCC3)cc2F)S(=O)(=O)N1`, the IC50 [4] is reported as less than 5 nM and the IC50 (B16) is reported as less than 5000 nM.

For `CC(C)CCN[C@@H]1CCc2cc(O)c(N3CC(=O)NS3(=O)=O)c(F)c2C1` [OSUNPROTAFIB], the EC50 [5] was 180 nM, the IC50 (B16) was 64 nM and the IC50 [6] was 1.8 nM. It also gave an IC50 [7] of 1.8 nM.

For `CC1CCN=C(Nc2cc(O)c(N3CC(=O)NS3(=O)=O)c(F)c2)N1` (centres undefined), the IC50 [4] was 10 nM and the IC50 (B16) was 5000 nM.

In the case of `N#Cc1ccc2cc(Br)c(C(F)(F)P(=O)(O)O)cc2c1`, the IC50 [4] is reported as 7.1 nM.

Work on `O=C1CN(c2c(O)cc3c(c2F)C[C@H](NCCCC(F)F)CS3)S(=O)(=O)N1` yielded an IC50 [3] of less than 10 nM, an IC50 [4] of less than 10 nM and an IC50 (B16) of 160 nM.

`CCc1ccc(C(=O)NCCCC[C@H](NC(=O)[C@H](Cc2ccc(C(F)(F)P(=O)(O)O)cc2)NC(=O)[C@H](Cc2ccccc2)NC(=O)O[C@H]2C[C@@H](C)CC[C@@H]2C(C)C)C(=O)NCCOCCC(=O)Nc2cccc3c2CN(C2CCC(=O)NC2=O)C3=O)cc1` (some centres undefined) showed a DC50 [2] of 35.8 nM and a Selectivity Index (Homo sapiens) greater than 110.

`O=C1CN(c2c(O)cc3ccc(NCC4CC4)cc3c2F)S(=O)(=O)N1` showed an EC50 [5] of 2650 nM, an IC50 [6] of 3.9 nM and an IC50 [7] of 3.9 nM.

In the case of `O=C1CN(c2c(O)cc3c(c2F)C[C@H](NCCC(F)F)N3)S(=O)(=O)N1`, the IC50 [3] is reported as 10 nM, the IC50 [4] is reported as 10 nM and the IC50 (B16) is reported as 700 nM.

Compound `CCc1cc(C[C@H](NC(C)=O)C(=O)NCCCCOc2cccc(O)c2C(=O)OC)ccc1N(C(=O)C(=O)O)c1ccccc1C(=O)O` has an IC50 [4] of 65 nM.
